The results in this text go back to patent US9145351B2, “Azole derivatives, methods for producing the same, intermediate thereof, agro-horticultural agents” (KUREHA CORPORATION, priority 2009, dated 2015).

Like-named read-outs stand apart in the source and are kept apart here.

One may read the inhibition as the percentage by which the read-out fell short of the control.

Common to all, as to assay type: cell-based
The test system of one experiment is Penicillium sp. Kind of experiment: Plate medium assay, industrial material deteriorating microorganism, Penicillium (Experimental Example 5). The note with it: treatment at 50 mg/l, PDA plate medium, read-out: growth inhibition grade. The protocol:
(§1) In this Experimental Example, the fungicidal effects of the inventive compounds on various phytopathogenic fungi for plants and hazardous microorganism for industrial materials were examined by the methods described below. Each inventive compound was dissolved in 2 ml of dimethyl sulfoxide. 0.6 ml of this solution was added to 60 nil of a PDA medium (potato dextrose agar medium) at about 60 degrees C., which was mixed thoroughly in a 100-ml conical flask, and poured into a dish, where it was solidified, thereby obtaining a plate medium containing the inventive compound at 50 mg/L and 5 mg/L. On the other hand, a subject microorganism previously cultured on a plate medium was cut out using a cork borer whose diameter was 4 mm, and inoculated to the test compound-containing plate medium described above. […] The growth degree of the microorganism on the test compound-containing plate medium thus observed was compared with the growth degree of the microorganism in the untreated group, and % mycelial growth inhibition was calculated by the following equation. R=100(dc-dt)/dc wherein R=% mycelial extension inhibition, dc=flora diameter in untreated plate, dt=flora diameter in treated plate. The results obtained as described above were evaluated as one of the 5 grades according to the following criteria.

For a further experiment, the system named is Fusarium oxysporum. Kind of experiment: Plate medium fungicidal assay, cucumber fusarium wilt F.c (Experimental Example 5). The note with it: Fusarium oxysporum. Summed up: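 Compound in DMSO mixed into PDA agar to give plates at 50 mg/L and 5 mg/L, then inoculated with 4 mm mycelial plug. Colony diameter compared with untreated plate as % mycelial growth inhibition, R=100(dc−dt)/dc, then scored on a 5-grade scale.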

The next experiment relates to Mucor sp. Description: Plate medium assay, industrial material deteriorating microorganism, Mucor (Experimental Example 5). The note with it: treatment at 50 mg/l, PDA plate medium, read-out: growth inhibition grade. Here is the method:
as §1

The subject of another experiment is Pyricularia oryzae. Description: microbe, parasite or virus in culture. The note with it: Pyricularia oryzae.
The next experiment relates to Alternaria alternata. Kind of experiment: Plate medium fungicidal assay, Alternaria blotch A.m (Experimental Example 5). Particulars: Alternaria alternata. Put shortly:
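Compound dissolved in DMSO and mixed into PDA plates at 50 mg/L and 5 mg/L; 4 mm mycelial plug inoculated. Colony diameter compared with untreated plates, % mycelial growth inhibition = 100(dc−dt)/dc, converted to one of 5 grades.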

The next experiment deals with Ustilago nuda. Description: Plate medium fungicidal assay, barley loose smut U.n (Experimental Example 5). The note with it: Ustilago nuda. Summed up:
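Compounds in DMSO were mixed into molten PDA to give plates at 50 mg/L and 5 mg/L, then inoculated with a 4 mm mycelial plug. Colony diameter was compared with untreated plates as % inhibition = 100(dc−dt)/dc, scored on a 5-grade scale.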

For the next experiment, the system named is Phaeosphaeria nodorum. Kind of experiment: Plate medium fungicidal assay, wheat Septoria nodorum blotch P.n (Experimental Example 5). The note with it: Parastagonospora nodorum. Put shortly:
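Compound in DMSO mixed into PDA plate medium at 50 mg/L and 5 mg/L; 4 mm mycelial plug of pre-cultured fungus inoculated onto plate. Colony diameter compared with untreated plate, % mycelial growth inhibition = 100(dc−dt)/dc, scored in 5 grades.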

[1] abbreviates: plate medium containing compound at 5 mg/L, read-out: Growth inhibition grade, F.c.
The mark [2] stands for this setting: plate medium containing compound at 50 mg/L, read-out: Growth inhibition grade, F.c.
[3] abbreviates: read-out: Growth inhibition grade, P.o.
The mark [4] stands for this setting: read-out: growth inhibition grade P.o.
Setting [5] is: plate medium containing compound at 5 mg/L, read-out: Growth inhibition grade, A.m.
The mark [6] stands for this setting: plate medium containing compound at 50 mg/L, read-out: Growth inhibition grade, A.m.
Setting [7] is: plate medium containing compound at 5 mg/L, read-out: Growth inhibition grade, U.n.
[8] abbreviates: plate medium containing compound at 50 mg/L, read-out: Growth inhibition grade, U.n.
Setting [9] is: plate medium containing compound at 5 mg/L, read-out: Growth inhibition grade, P.n.
[10] abbreviates: plate medium containing compound at 50 mg/L, read-out: Growth inhibition grade, P.n.

Turning to `C[C@]1(CCl)CC[C@@H](Cc2ccccc2)[C@]1(O)Cn1cncn1` (racemic) [Compound I-73, (1RS,2SR,5SR)-2-chloromethyl-5-benzyl-2-methyl-1-(1H-1,2,4-triazol-1-ylmethyl)cyclopentanol], the inhibition at 50 µg/mL in the experiment with Penicillium sp. is 60 to 80%; with Fusarium oxysporum (setting [2]) it was > 80%; in the experiment with Fusarium oxysporum (plate medium, 50 mg/L, read-out: growth inhibition grade F.c), > 80%; in the experiment on Mucor sp. it was 60 to 80%; in the experiment on Pyricularia oryzae (setting [3]), > 80%; in the experiment with Pyricularia oryzae (setting [4]) it was > 80%. The inhibition at 50 µg/mL in the experiment with Alternaria alternata (setting [6]) is > 80%; in the experiment with Alternaria alternata (plate medium, 50 mg/L, read-out: growth inhibition grade A.m), > 80%; in the experiment with Ustilago nuda (setting [8]), > 80%; with Ustilago nuda (plate medium, 50 mg/L, read-out: growth inhibition grade U.n) it was > 80%; with Phaeosphaeria nodorum (setting [10]) it was > 80%; in the experiment with Phaeosphaeria nodorum (plate medium, 50 mg/L, read-out: growth inhibition grade P.n), > 80%. Also, the inhibition at 5 µg/mL with Fusarium oxysporum (setting [1]) was > 80%; in the experiment on Fusarium oxysporum (plate medium, 5 mg/L, read-out: growth inhibition grade F.c), > 80%; in the experiment with Pyricularia oryzae (setting [3]), > 80%; with Pyricularia oryzae (setting [4]) it was > 80%; in the experiment with Alternaria alternata (setting [5]), > 80%; with Alternaria alternata (plate medium, 5 mg/L, read-out: growth inhibition grade A.m), > 80%. Moreover, the inhibition at 5 µg/mL in the experiment on Ustilago nuda (setting [7]) was > 80%; with Ustilago nuda (plate medium, 5 mg/L, read-out: growth inhibition grade U.n) it was > 80%; with Phaeosphaeria nodorum (setting [9]) it was > 80%; in the experiment on Phaeosphaeria nodorum (plate medium, 5 mg/L, read-out: growth inhibition grade P.n), > 80%.

For the compound `CC(Cl)=C[C@@]1(C)CC[C@@H](Cc2ccc(Cl)cc2)[C@]1(O)Cn1cncn1` (racemic) [Compound I-15, (1RS,2RS,5SR)-5-(4-chlorobenzyl)-2-(2-chloropropenyl)-2-methyl-1-(1H-1,2,4-triazol-1-ylmethyl)cyclopentanol], the inhibition at 50 µg/mL with Penicillium sp. is 60 to 80%; with Fusarium oxysporum (setting [2]) it was > 80%; with Mucor sp., 60 to 80%; in the experiment on Pyricularia oryzae (setting [3]) it was > 80%; in the experiment on Alternaria alternata (setting [6]) it was > 80%; in the experiment on Ustilago nuda (setting [8]), > 80%. The inhibition at 50 µg/mL with Phaeosphaeria nodorum (setting [10]) was > 80%. In addition, the inhibition at 5 µg/mL in the experiment on Fusarium oxysporum (setting [1]), with Pyricularia oryzae (setting [3]), with Alternaria alternata (setting [5]), in the experiment with Ustilago nuda (setting [7]) and with Phaeosphaeria nodorum (setting [9]) was > 80% each time.

For the compound `CC[C@]1(CCl)CC[C@@H](Cc2ccc(Cl)cc2)[C@]1(O)Cn1cncn1` (racemic) [Compound I-36, (1RS,2SR,5SR)-5-(4-chlorobenzyl)-2-chloromethyl-2-ethyl-1-(1H-1,2,4-triazol-1-ylmethyl)cyclopentanol], the inhibition at 50 µg/mL with Penicillium sp. was 60 to 80%; in the experiment on Fusarium oxysporum (setting [2]), > 80%; with Mucor sp., 60 to 80%; in the experiment with Pyricularia oryzae (setting [3]), > 80%; with Alternaria alternata (setting [6]), > 80%; with Ustilago nuda (setting [8]), > 80%. For the same compound, the inhibition at 50 µg/mL in the experiment on Phaeosphaeria nodorum (setting [10]) is > 80%. Also, the inhibition at 5 µg/mL in the experiment with Fusarium oxysporum (setting [1]) is > 80%; in the experiment on Pyricularia oryzae (setting [3]) it was > 80%; in the experiment with Alternaria alternata (setting [5]), > 80%; in the experiment on Ustilago nuda (setting [7]), 60 to 80%; in the experiment with Phaeosphaeria nodorum (setting [9]) it was > 80%.
